Data set [1] has as its target T1, Phospholipase D1 (Homo sapiens, UniProt Q13393).
T1 sequence (Q13393 whole entry): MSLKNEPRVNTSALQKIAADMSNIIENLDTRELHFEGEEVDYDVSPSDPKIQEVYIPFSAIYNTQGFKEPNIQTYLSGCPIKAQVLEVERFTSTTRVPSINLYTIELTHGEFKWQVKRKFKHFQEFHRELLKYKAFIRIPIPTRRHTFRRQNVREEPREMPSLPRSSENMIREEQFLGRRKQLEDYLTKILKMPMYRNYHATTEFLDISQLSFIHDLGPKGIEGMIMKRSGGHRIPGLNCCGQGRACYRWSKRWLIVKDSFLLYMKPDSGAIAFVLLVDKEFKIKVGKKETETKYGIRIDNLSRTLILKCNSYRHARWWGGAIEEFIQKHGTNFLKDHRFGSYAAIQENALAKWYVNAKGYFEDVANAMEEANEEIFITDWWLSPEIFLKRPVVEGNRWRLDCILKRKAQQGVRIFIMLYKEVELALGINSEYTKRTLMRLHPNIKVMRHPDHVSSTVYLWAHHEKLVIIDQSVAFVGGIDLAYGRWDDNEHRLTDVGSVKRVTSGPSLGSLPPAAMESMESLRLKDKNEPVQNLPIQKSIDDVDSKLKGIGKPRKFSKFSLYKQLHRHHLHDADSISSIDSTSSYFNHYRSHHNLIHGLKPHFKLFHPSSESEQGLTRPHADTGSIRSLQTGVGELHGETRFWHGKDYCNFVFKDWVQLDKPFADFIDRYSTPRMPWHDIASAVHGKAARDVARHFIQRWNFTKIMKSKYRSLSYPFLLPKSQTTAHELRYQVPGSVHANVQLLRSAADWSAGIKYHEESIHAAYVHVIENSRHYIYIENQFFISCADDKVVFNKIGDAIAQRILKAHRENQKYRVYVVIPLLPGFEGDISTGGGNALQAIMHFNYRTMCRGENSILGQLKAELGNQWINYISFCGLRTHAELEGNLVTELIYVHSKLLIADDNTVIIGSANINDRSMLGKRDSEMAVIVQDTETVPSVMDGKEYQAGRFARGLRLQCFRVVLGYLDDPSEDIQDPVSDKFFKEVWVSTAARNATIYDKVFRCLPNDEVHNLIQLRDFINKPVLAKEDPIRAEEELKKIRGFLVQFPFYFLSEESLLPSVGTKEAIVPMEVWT
The data set is described as follows: Inhibition of PLD1 in human Calu1 cells. The data set is classed as cell-based.

In data set [2] the target is T2, Phospholipase D2 (Homo sapiens, UniProt O14939). Put plainly: Inhibition of GFP-fused PLD2 (unknown origin) expressed in HEK293 cells by cellular assay. The data set is classed as cell-based.
T2 sequence (O14939 whole entry, the tested form may be a part): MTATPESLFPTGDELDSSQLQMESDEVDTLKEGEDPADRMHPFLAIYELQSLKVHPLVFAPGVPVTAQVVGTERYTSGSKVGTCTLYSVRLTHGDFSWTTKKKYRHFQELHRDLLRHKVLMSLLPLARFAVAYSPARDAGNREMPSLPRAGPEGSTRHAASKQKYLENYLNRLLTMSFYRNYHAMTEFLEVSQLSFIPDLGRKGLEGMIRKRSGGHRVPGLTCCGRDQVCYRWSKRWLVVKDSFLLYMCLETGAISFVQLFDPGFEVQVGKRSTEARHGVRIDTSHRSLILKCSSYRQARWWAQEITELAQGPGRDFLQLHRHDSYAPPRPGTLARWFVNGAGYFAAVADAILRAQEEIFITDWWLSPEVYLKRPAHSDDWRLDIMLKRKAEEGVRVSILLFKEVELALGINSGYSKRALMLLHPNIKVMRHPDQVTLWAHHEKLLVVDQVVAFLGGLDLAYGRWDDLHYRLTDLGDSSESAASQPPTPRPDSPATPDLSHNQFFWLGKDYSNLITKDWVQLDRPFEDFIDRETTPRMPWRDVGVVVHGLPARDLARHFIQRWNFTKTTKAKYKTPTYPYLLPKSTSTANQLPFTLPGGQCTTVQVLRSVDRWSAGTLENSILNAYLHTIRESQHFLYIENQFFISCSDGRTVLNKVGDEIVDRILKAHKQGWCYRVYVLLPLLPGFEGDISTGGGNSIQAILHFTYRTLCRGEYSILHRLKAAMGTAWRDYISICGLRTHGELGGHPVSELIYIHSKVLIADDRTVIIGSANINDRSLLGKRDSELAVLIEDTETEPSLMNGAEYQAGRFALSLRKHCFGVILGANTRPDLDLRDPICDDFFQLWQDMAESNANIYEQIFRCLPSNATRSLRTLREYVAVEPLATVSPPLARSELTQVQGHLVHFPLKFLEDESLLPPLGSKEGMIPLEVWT
A short description of data set [3]: Fraction unbound in human plasma. The data set is classed as ADME, cell-free.
Data set [4] can be described thus: Fraction unbound in rat plasma. The class given is ADME, cell-free.
The nature of data set [5]: Fraction unbound in rat brain. The data set is classed as ADME, tissue-based.
Data set [6] addresses T2, Phospholipase D2.
Description: Inhibition of PLD2 (unknown origin)
Data set [7] addresses T1, Phospholipase D1.
Description: Inhibition of PLD1 (unknown origin)
The species named for a further data set is Homo sapiens. The data set is described as follows: Selectivity ratio of IC50 for […] (unknown origin) to IC50 for […] (unknown origin).
The nature of data set [8]: […] clearance in rat at […], iv administered as cassette dose. The data set is classed as ADME, organism-based. Particulars: in vivo.
The nature of data set [9]: Half life in rat at […], iv administered as cassette dose. Particulars: in vivo. The data set is classed as ADME, organism-based.
Data set [10] in a line: Volume of distribution at steady state in rat at […], iv administered as cassette dose. The data set is classed as ADME, organism-based. Particulars: in vivo, read-out: Vdss.

Usually IC50 stands for the concentration at which inhibition is half-maximal. Higher therefore signals weaker potency in that assay. The term half-life denotes the time needed for the level to fall by half in the phase considered. Lower therefore signals rapid decline.

Each structure is given as a SMILES string. Some results are limits rather than exact numbers.

With `C[C@@H](CN1CCC2(CC1)C(=O)NC[C@H]2c1ccc(F)cc1)NC(=O)c1cc2ccccc2[nH]1`, the IC50 came out at 0.001 µM against Phospholipase D1 [1] and 0.012 µM against Phospholipase D2 [2]. Besides, the values for the Fu in [3], in data set [4] and in data set [5] were 13.6%, 13% and 0.4%, respectively.
In the case of `C[C@@H](CN1CCC2(CC1)C(=O)NC[C@H]2c1ccc(F)cc1)NC(=O)c1ccc2ccccc2c1`, the IC50 against Phospholipase D1 [1] is 0.82 µM; against Phospholipase D2 [2], 0.026 µM. The Fu amounted to 4.5% in data set [3], 6.1% in data set [4] and 0.3% in data set [5].
As for `C[C@@H](CN1CCC2(CC1)C(=O)NC[C@@H]2c1ccc(F)cc1)NC(=O)C#Cc1ccccc1`, the IC50 against Phospholipase D1 [1] stood at 0.32 µM; against Phospholipase D2 [2], 4 µM.
In the same order, the values of `C[C@@H](CN1CCC2(CC1)C(=O)NC[C@@H]2c1ccc(F)cc1)NC(=O)c1ccc(F)cc1` are 1.7 µM and 2.8 µM.
Take `O=C(C#Cc1ccccc1)NCCN1CCC2(CC1)C(=O)NC[C@@H]2c1ccc(F)cc1`: the IC50 was 6.4 µM at Phospholipase D1 [1] and 0.81 µM against Phospholipase D2 [2].
In the same order, the values of `C[C@@H](CN1CCC2(CC1)C(=O)NC[C@@H]2c1ccc(F)cc1)NC(=O)c1cc2ccccc2[nH]1` are 0.016 µM and 0.14 µM.
Take `O=C(NCCN1CCC2(CC1)C(O)=NC[C@H]2c1ccc(F)cc1)c1cnc2ccccc2c1`: the Fu in [3] worked out at 12.2%; in data set [4] it was 31.4%; in data set [5], 2.6%.
Take `O=C(NCCN1CCC2(CC1)C(=O)NC[C@@H]2c1ccc(F)cc1)c1cc2ccccc2[nH]1`: the IC50 against Phospholipase D1 [1] was determined as 0.32 µM; against Phospholipase D2 [2], 0.043 µM.
In the case of `O=C(C#Cc1ccccc1)NCCN1CCC2(CC1)C(=O)NC[C@H]2c1ccc(F)cc1`, the half-inhibitory concentration (IC50) against Phospholipase D1 [1] was 1.2 µM; against Phospholipase D2 [2], 0.07 µM. Also, the Fu turned out to be 13.8% in data set [3], 16% in data set [4] and 1.3% in data set [5].
For the compound `O=C(NCCN1CCC2(CC1)C(=O)NCN2Cc1cccnc1)c1ccc2ccccc2c1`, the IC50 against Phospholipase D2 [6] is 0.36 µM; against Phospholipase D1 [7] it was > 30 µM. In the data set filed under Homo sapiens, the Ratio IC50 is > 80.
Consider `O=C(NCCN1CCC2(CC1)C(=O)NC[C@H]2c1ccc(F)cc1)c1cc2ccccc2[nH]1`, for which the IC50 on Phospholipase D1 [1] is 0.021 µM; against Phospholipase D2 [2], 0.0025 µM. For the same compound, the Fu in data set [3] was 12.4%; in data set [4] it was 19.8%; in data set [5], 0.4%. For the same compound, in data set [8], the CLH amounted to 20.4 L/h/kg. In data set [9], the half-life was 3.63 h. For the same compound, in data set [10], the Vd worked out at 80 L/kg.
In the case of `O=C(NCCN1CCC2(CC1)C(O)=NC[C@H]2c1ccc(F)cc1)c1ccc(F)cc1`, the Fu amounted to 10.8% in data set [3], 24.6% in data set [4] and 2.7% in data set [5]. The same compound had a CLH in data set [8] of 15 L/h/kg. The half-life in [9] was 3.2 h. Further, the Vd in data set [10] is 56 L/kg.
For `C[C@@H](CN1CCC2(CC1)C(=O)NC[C@H]2c1ccc(F)cc1)NC(=O)C#Cc1ccccc1`, the IC50 amounted to 0.016 µM against Phospholipase D1 [1] and 0.15 µM on Phospholipase D2 [2].
In the same order, the values of `C[C@@H](CN1CCC2(CC1)C(=O)NC[C@H]2c1ccc(F)cc1)NC(=O)c1ccc(F)cc1` are 0.25 µM and 0.21 µM.

The record behind these values is ChEMBL document CHEMBL4325916, “Isoform selective PLD inhibition by novel, chiral 2,8-diazaspiro[4.5]decan-1-one derivatives” (Bioorg Med Chem Lett, 2018).
